Laboratory results: US8735414B2 (priority 2009, dated 2014)

Assays:
[1] = system: bicistronic HCV replicon (replicon RNA, GenBank Accession No. AJ242654); assay: HCV Replicon Assay; type: cell-based; conditions: Hepatitis C virus, 72 h, read-out: Replicon IC50

Row | SMILES | IC50 [1] [µM] | melting point [°C]
1 | CCc1ccc2c(c1)c(C#N)c(-c1ccc(S(=O)(=O)N[C@@H](C)C(F)(F)F)cn1)n2C1CCC1 [compound 339, 6-(3-cyano-1-cyclobutyl-5-ethyl-1H-indol-2-yl)-N-[(2S)-1,1,1-trifluoropropan-2-yl]pyridine-3-sulfonamide] | < 0.5 | 168 to 169
2 | Cc1cc2c(cc1F)c(C#N)c(-c1ccc(S(=O)(=O)N[C@@H](C)C(F)(F)F)cn1)n2C1CCC1 [compound 340, 6-(3-cyano-1-cyclobutyl-5-fluoro-6-methyl-1H-indol-2-yl)-N-[(2S)-1,1,1-trifluoropropan-2-yl]pyridine-3-sulfonamide] | < 0.5 | 218 to 219
3 | C[C@H](NS(=O)(=O)c1ccc(-c2c(C#N)c3ccc(OC(F)F)cc3n2C2CCCCC2)nc1)C(F)(F)F [compound 341, 6-[3-cyano-1-cyclohexyl-6-(difluoromethoxy)-1H-indol-2-yl]-N-[(2S)-1,1,1-trifluoropropan-2-yl]pyridine-3-sulfonamide] | < 0.5 | 149 to 151
4 | C[C@@H](NS(=O)(=O)c1ccc(-c2c(C#N)c3ccc(C4CCC4)cc3n2C2CCCC2)nc1)C(F)(F)F [compound 343, 6-(3-cyano-6-cyclobutyl-1-cyclopentyl-1H-indol-2-yl)-N-[(2R)-1,1,1-trifluoropropan-2-yl]pyridine-3-sulfonamide] | 2 to 5 | 176 to 178
5 | N#Cc1c(-c2ncc(S(=O)(=O)NC(CF)CF)cn2)n(CC2CC2)c2cc(C3CC3)ccc12 [compound 344, 2-[3-cyano-6-cyclopropyl-1-(cyclopropylmethyl)-1H-indol-2-yl]-N-(1,3-difluoropropan-2-yl)pyrimidine-5-sulfonamide] | < 0.5 | 205 to 210
6 | Cc1ccc2c(c1)c(C#N)c(-c1ccc(S(=O)(=O)N[C@@H](C)C(F)(F)F)cn1)n2C1CCCC1 [compound 345, 6-(3-cyano-1-cyclopentyl-5-methyl-1H-indol-2-yl)-N-[(2S)-1,1,1-trifluoropropan-2-yl]pyridine-3-sulfonamide] | < 0.5 | 195 to 200
7 | C[C@H](NS(=O)(=O)c1ccc(-c2c(C#N)c3cc(C#N)ccc3n2C2CCCC2)nc1)C(F)(F)F [compound 346, 6-(3,5-dicyano-1-cyclopentyl-1H-indol-2-yl)-N-[(2S)-1,1,1-trifluoropropan-2-yl]pyridine-3-sulfonamide] | < 0.5 | 225 to 228
8 | N#Cc1ccc2c(C#N)c(-c3ccc(S(=O)(=O)NC(CF)CF)cn3)n(CC3CC3)c2c1 [compound 347, 6-[3,6-dicyano-1-(cyclopropylmethyl)-1H-indol-2-yl]-N-(1,3-difluoropropan-2-yl)pyridine-3-sulfonamide] | 0.5 to 2 | 199 to 201
9 | CC(C)NS(=O)(=O)c1ccc(-c2c(C#N)c3ccc(C#N)cc3n2CC2CC2)nc1 [compound 348, 6-[3,6-dicyano-1-(cyclopropylmethyl)-1H-indol-2-yl]-N-(propan-2-yl)pyridine-3-sulfonamide] | 0.5 to 2 | 190 to 192
10 | C[C@H](NS(=O)(=O)c1ccc(-c2c(C#N)c3ccc(C#N)cc3n2CC2CC2)nc1)C(F)(F)F [compound 349, 6-[3,6-dicyano-1-(cyclopropylmethyl)-1H-indol-2-yl]-N-[(2S)-1,1,1-trifluoropropan-2-yl]pyridine-3-sulfonamide] | 0.5 to 2 | 187 to 188
11 | C[C@H](NS(=O)(=O)c1ccc(-c2c(C#N)c3ccc(C#N)cc3n2CC2CC2)nc1)C1CC1 [compound 350, N-[(1S)-1-cyclopropylethyl]-6-[3,6-dicyano-1-(cyclopropylmethyl)-1H-indol-2-yl]pyridine-3-sulfonamide] | 0.5 to 2 | 203 to 208
12 | Cc1ccc2c(C#N)c(-c3ccc(S(=O)(=O)N[C@@H](C)C(F)(F)F)cn3)n(C3CCC3)c2c1 [compound 351, 6-(3-cyano-1-cyclobutyl-6-methyl-1H-indol-2-yl)-N-[(2S)-1,1,1-trifluoropropan-2-yl]pyridine-3-sulfonamide] | < 0.5 | 203 to 208
13 | Cc1ccc2c(C#N)c(-c3ccc(S(=O)(=O)N[C@@H](C)C(F)(F)F)cn3)n(C3CCCC3)c2c1 [compound 352, 6-(3-cyano-1-cyclopentyl-6-methyl-1H-indol-2-yl)-N-[(2S)-1,1,1-trifluoropropan-2-yl]pyridine-3-sulfonamide] | < 0.5 | 176 to 180
14 | Cc1ccc2c(C#N)c(-c3ccc(S(=O)(=O)N[C@@H](C)C(F)(F)F)cn3)n(CC3CC3)c2c1 [compound 353, 6-[3-cyano-1-(cyclopropylmethyl)-6-methyl-1H-indol-2-yl]-N-[(2S)-1,1,1-trifluoropropan-2-yl]pyridine-3-sulfonamide] | < 0.5 | 165 to 168
15 | Cc1ccc2c(C#N)c(-c3ccc(S(=O)(=O)N[C@@H](C)C(F)(F)F)cn3)n(C3CCCCC3)c2c1 [compound 354, 6-(3-cyano-1-cyclohexyl-6-methyl-1H-indol-2-yl)-N-[(2S)-1,1,1-trifluoropropan-2-yl]pyridine-3-sulfonamide] | < 0.5 | 207 to 212
16 | Cc1ccc2c(C#N)c(-c3ccc(S(=O)(=O)N[C@@H](C)C(F)(F)F)cn3)n(C(C)C)c2c1 [compound 355, 6-[3-cyano-6-methyl-1-(propan-2-yl)-1H-indol-2-yl]-N-[(2S)-1,1,1-trifluoropropan-2-yl]pyridine-3-sulfonamide] | < 0.5 | 211 to 216
17 | Cc1ccc(-n2c(-c3ccc(S(=O)(=O)NC(CF)CF)cn3)c(C#N)c3cc(F)ccc32)cc1 [compound 356, 6-[3-cyano-5-fluoro-1-(4-methylphenyl)-1H-indol-2-yl]-N-(1,3-difluoropropan-2-yl)pyridine-3-sulfonamide] | < 0.5 | 208 to 210
18 | Cc1ccc(-n2c(-c3ncc(S(=O)(=O)NC(C)C)cn3)c(C#N)c3cc(F)ccc32)cc1 [compound 357, 2-[3-cyano-5-fluoro-1-(4-methylphenyl)-1H-indol-2-yl]-N-(propan-2-yl)pyrimidine-5-sulfonamide] | < 0.5 | 200 to 202
19 | C[C@H](NS(=O)(=O)c1ccc(-c2c(C#N)c3ccc(OC(F)(F)F)cc3n2C2CCCC2)nc1)C(F)(F)F [compound 358, 6-[3-cyano-1-cyclopentyl-6-(trifluoromethoxy)-1H-indol-2-yl]-N-[(2S)-1,1,1-trifluoropropan-2-yl]pyridine-3-sulfonamide] | < 0.5 | 168 to 170
20 | CC(C)n1c(-c2ccc(S(=O)(=O)N[C@@H](C)C(F)(F)F)cn2)c(C#N)c2ccc(OC(F)F)cc21 [compound 359, 6-[3-cyano-6-(difluoromethoxy)-1-(propan-2-yl)-1H-indol-2-yl]-N-[(2S)-1,1,1-trifluoropropan-2-yl]pyridine-3-sulfonamide] | < 0.5 | 163 to 166
21 | C[C@H](NS(=O)(=O)c1ccc(-c2c(C#N)c3cc(F)c(Cl)cc3n2C2CCC2)nc1)C(F)(F)F [compound 360, 6-(6-chloro-3-cyano-1-cyclobutyl-5-fluoro-1H-indol-2-yl)-N-[(2S)-1,1,1-trifluoropropan-2-yl]pyridine-3-sulfonamide] | < 0.5 | 203 to 206
22 | N#Cc1c(-c2ncc(S(=O)(=O)NC(CF)CF)cn2)n(C2CCC2)c2cc(CF)ccc12 [compound 361, 2-[3-cyano-1-cyclobutyl-6-(fluoromethyl)-1H-indol-2-yl]-N-(1,3-difluoropropan-2-yl)pyrimidine-5-sulfonamide] | < 0.5 | 226 to 232
23 | C[C@H](NS(=O)(=O)c1ccc(-c2c(C#N)c3ccc(CF)cc3n2C2CCC2)nc1)C(F)(F)F [compound 362, 6-[3-cyano-1-cyclobutyl-6-(fluoromethyl)-1H-indol-2-yl]-N-[(2S)-1,1,1-trifluoropropan-2-yl]pyridine-3-sulfonamide] | < 0.5 | 205 to 209
24 | C[C@H](NS(=O)(=O)c1ccc(-c2c(C#N)c3ccc(C(F)F)cc3n2C2CCC2)nc1)C(F)(F)F [compound 363, 6-[3-cyano-1-cyclobutyl-6-(difluoromethyl)-1H-indol-2-yl]-N-[(2S)-1,1,1-trifluoropropan-2-yl]pyridine-3-sulfonamide] | < 0.5 | 198 to 207
25 | C[C@H](NS(=O)(=O)c1ccc(-c2c(C#N)c3cc(Cl)ccc3n2C2CCCC2)nc1)C(F)(F)F [compound 365, 6-(5-chloro-3-cyano-1-cyclopentyl-1H-indol-2-yl)-N-[(2S)-1,1,1-trifluoropropan-2-yl]pyridine-3-sulfonamide] | < 0.5 | 207 to 214
26 | C[C@H](NS(=O)(=O)c1cnc(-c2c(C#N)c3cc(C#N)ccc3n2C2CCCC2)nc1)C1CC1 [compound 367, N-[(1S)-1-cyclopropylethyl]-2-(3,5-dicyano-1-cyclopentyl-1H-indol-2-yl)pyrimidine-5-sulfonamide] | 0.5 to 2 | 218 to 223
27 | C[C@H](NS(=O)(=O)c1ccc(-c2c(C#N)c3ccc(OC(F)(F)F)cc3n2C2CCC2)nc1)C(F)(F)F [compound 370, 6-[3-cyano-1-cyclobutyl-6-(trifluoromethoxy)-1H-indol-2-yl]-N-[(2S)-1,1,1-trifluoropropan-2-yl]pyridine-3-sulfonamide] | < 0.5 | 165 to 175
28 | Cc1ccc2c(C#N)c(-c3ccc(S(=O)(=O)NC(C)(C)C(F)(F)F)cn3)n(C3CCCC3)c2c1 [compound 371, 6-(3-cyano-1-cyclopentyl-6-methyl-1H-indol-2-yl)-N-(1,1,1-trifluoro-2-methylpropan-2-yl)pyridine-3-sulfonamide] | < 0.5 | 202 to 211
29 | Cc1ccc2c(c1)c(C#N)c(-c1ccc(S(=O)(=O)N[C@@H](C)C(F)(F)F)cn1)n2CC1CC1 [compound 372, 6-[3-cyano-1-(cyclopropylmethyl)-5-methyl-1H-indol-2-yl]-N-[(2S)-1,1,1-trifluoropropan-2-yl]pyridine-3-sulfonamide] | < 0.5 | 175 to 180
